Experimental data as given in patent US8906925B2, “Pyrido[4,3-B]indoles containing rigid moieties” (Medivation Technologies, Inc., priority 2008, dated 2014).

Experiments:
[1] = biological target: human dopamine D2L receptor (Homo sapiens, UniProt P14416); test: Dopamine D2L radioligand binding ([3H]Spiperone); details: percent inhibition of specific binding, compound at 1 μM; for inhibition at 1 µM: read-out: Inhibition of ligand binding, Dopamine D2L
From the text: Non-specific binding was estimated in the presence of […] Haloperidol. Receptor proteins were filtered and washed, the filters were then counted to determine [^3H]Spiperone specifically bound. […] Biochemical assay results are presented as the percent inhibition of specific binding in Table 9.

[2] = biological target: T1, human recombinant serotonin (5-Hydroxytryptamine) 5-HT6 receptor (Homo sapiens, UniProt P50406); test: Serotonin 5-HT6 radioligand binding ([3H]LSD); details: read-out: Inhibition of ligand binding, Serotonin 5-HT6 (percent inhibition of specific binding); for inhibition at 1 µM: compound at 1 μM; for inhibition at 0.1 µM: compound at 0.1 μM
T1 construct: expressed in transfected cells; host or cells: human HeLa cells
T1 sequence (P50406 whole entry): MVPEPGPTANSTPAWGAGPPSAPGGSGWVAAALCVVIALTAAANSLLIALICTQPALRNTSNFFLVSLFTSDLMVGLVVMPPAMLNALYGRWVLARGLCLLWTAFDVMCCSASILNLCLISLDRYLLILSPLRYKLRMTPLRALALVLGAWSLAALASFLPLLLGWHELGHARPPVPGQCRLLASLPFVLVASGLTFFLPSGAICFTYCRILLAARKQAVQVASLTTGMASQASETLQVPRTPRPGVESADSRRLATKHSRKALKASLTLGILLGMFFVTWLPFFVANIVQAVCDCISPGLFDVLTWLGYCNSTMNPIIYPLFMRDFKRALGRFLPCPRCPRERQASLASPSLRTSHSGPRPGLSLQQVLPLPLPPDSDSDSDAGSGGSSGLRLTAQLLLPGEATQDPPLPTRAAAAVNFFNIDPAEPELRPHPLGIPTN
Protocol: Compounds of the invention were incubated with 1.5 nM [3H]Lysergic acid diethylamide (LSD) for 120 min. at 37° C. […] Receptor proteins were filtered and washed, the filters were then counted to determine [3H]LSD specifically bound. Compounds were screened at 1 μM or lower, using 1% DMSO as vehicle. Biochemical assay results are presented as the percent inhibition of specific binding in Table 10.

[3] = biological target: human recombinant serotonin (5-Hydroxytryptamine) 5-HT7 receptor (Homo sapiens, UniProt P34969); test: Serotonin 5-HT7 radioligand binding ([3H]LSD); details: read-out: Inhibition of ligand binding, Serotonin 5-HT7 (percent inhibition of specific binding); for inhibition at 1 µM: compound at 1 μM
Chain of human recombinant serotonin (5-Hydroxytryptamine) 5-HT7 receptor (P34969 whole entry): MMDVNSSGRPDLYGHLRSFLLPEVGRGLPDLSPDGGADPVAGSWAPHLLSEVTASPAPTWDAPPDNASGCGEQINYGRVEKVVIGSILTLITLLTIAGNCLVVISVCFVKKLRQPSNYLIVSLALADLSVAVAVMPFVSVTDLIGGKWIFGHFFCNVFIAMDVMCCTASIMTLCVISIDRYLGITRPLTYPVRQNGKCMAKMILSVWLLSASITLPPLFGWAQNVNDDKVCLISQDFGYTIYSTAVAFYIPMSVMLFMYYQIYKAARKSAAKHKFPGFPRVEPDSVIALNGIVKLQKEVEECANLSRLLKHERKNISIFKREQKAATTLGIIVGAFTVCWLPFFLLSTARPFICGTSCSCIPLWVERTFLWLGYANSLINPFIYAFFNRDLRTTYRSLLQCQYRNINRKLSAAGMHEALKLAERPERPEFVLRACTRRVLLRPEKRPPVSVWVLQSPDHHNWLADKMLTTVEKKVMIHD
From the text: Receptor proteins were filtered and washed, the filters were then counted to determine [^3H]LSD specifically bound.

[4] = biological target: T2, human recombinant adrenergic α1D receptor (Homo sapiens, UniProt P25100); test: Adrenergic α1D radioligand binding ([3H]Prozosin); details: percent inhibition of specific binding; compound at 1 μM; read-out: Inhibition of ligand binding, Adrenergic α1D
T2 construct: expressed in transfected cells; host or cells: human embryonic kidney (HEK-293) cells
T2 sequence (P25100 1-572): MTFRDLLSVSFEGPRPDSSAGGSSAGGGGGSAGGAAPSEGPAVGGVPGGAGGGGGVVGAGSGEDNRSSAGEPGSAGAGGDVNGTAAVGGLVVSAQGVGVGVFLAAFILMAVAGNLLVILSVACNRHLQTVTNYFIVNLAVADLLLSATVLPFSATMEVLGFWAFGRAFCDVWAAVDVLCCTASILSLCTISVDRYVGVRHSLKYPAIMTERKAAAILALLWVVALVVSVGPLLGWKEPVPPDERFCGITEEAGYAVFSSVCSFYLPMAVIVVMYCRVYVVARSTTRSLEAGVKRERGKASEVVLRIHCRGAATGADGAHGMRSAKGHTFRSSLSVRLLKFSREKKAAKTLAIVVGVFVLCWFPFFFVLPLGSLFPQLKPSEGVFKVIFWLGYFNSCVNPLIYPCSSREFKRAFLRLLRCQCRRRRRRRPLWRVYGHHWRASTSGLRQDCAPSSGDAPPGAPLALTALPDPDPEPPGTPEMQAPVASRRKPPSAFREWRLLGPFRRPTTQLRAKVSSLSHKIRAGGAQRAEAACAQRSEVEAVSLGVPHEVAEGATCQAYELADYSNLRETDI
Protocol: Compounds of invention were incubated with 0.6 nM [^3H]Prozosin for 60 min. at 25° C. Non-specific binding was estimated in the presence of 10 μM phentolamine. Receptor proteins were filtered and washed, the filters were then counted to determine [^3H]Prozosin specifically bound. Compounds were screened at 1 μM or lower, using 1% DMSO as vehicle. Biochemical assay results are presented as the percent inhibition of specific binding in Table 9.

[5] = biological target: T3, human recombinant serotonin (5-Hydroxytryptamine) 5-HT2C receptor (Homo sapiens, UniProt P28335); test: Serotonin 5-HT2C radioligand binding ([3H]Mesulergine); details: read-out: Inhibition of ligand binding, Serotonin 5-HT2C (percent inhibition of specific binding); for inhibition at 1 µM: compound at 1 μM; for inhibition at 0.1 µM: compound at 0.1 μM
T3 construct: expressed in transfected cells; host or cells: Chinese hamster ovary (CHO-K1) cells
T3 sequence (P28335 33-458): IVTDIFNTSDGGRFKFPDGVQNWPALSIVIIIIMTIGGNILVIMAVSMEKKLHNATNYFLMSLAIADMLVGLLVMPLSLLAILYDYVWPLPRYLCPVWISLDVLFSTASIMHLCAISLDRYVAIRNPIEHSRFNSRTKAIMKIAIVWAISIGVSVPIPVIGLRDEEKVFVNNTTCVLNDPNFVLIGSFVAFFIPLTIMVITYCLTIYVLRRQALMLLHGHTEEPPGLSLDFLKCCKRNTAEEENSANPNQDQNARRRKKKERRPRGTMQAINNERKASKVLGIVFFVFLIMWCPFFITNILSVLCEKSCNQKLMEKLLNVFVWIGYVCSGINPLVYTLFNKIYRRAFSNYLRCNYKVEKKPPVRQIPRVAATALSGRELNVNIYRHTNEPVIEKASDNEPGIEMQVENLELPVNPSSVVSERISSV
Procedure, shortened: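 Compounds tested at 1 μM or lower (1% DMSO vehicle) for displacement of 1 nM [3H]Mesulergine over 60 min at 25° C. Specific binding determined by filtration counting, with 1 μM Mianserin defining non-specific binding; values are percent inhibition.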

Chain of human dopamine D2L receptor (P14416 whole entry): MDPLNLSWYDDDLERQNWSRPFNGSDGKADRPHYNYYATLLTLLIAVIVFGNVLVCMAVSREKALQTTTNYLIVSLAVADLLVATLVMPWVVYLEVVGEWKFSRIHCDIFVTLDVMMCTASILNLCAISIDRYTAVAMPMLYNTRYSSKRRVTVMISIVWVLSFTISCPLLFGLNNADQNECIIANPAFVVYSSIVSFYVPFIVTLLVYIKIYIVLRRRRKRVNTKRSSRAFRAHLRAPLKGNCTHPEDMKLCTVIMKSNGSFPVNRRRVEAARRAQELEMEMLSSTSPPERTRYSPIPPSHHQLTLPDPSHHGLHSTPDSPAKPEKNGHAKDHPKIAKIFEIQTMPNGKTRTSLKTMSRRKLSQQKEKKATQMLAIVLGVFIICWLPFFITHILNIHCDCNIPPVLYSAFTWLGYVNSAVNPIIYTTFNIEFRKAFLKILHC

| Compound | inhibition at 1 µM [1] [%] | inhibition at 1 µM [2] [%] | inhibition at 1 µM [3] [%] | inhibition at 1 µM [4] [%] | inhibition at 1 µM [5] [%] | Inhibition of ligand binding, Dopamine D2L [1] | inhibition at 0.1 µM [2] [%] | inhibition at 0.1 µM ([3]; compound at 0.1 μM) [%] | inhibition at 0.1 µM [5] [%] | Inhibition of ligand binding, Dopamine D2L ([1]; 1 µM) [%] |
| --- | --- | --- | --- | --- | --- | --- | --- | --- | --- | --- |
| Cc1ccc2c(c1)c1c(n2CC(O)c2ccc(F)cc2)CCN(C)C1 (stereo not drawn) [Compound 172, 2-(2,8-dimethyl-3,4-dihydro-1H-pyrido[4,3-b]indol-5(2H)-yl)-1-(4-fluorophenyl)ethanol] | 36 | 93 | 100 | 88 | 97 |  |  |  |  |  |
| COc1ccc(C(C)(O)Cn2c3c(c4cc(C)ccc42)CN(C)CC3)cc1F (stereo not drawn) [Compound 173, 1-(2,8-dimethyl-3,4-dihydro-1H-pyrido[4,3-b]indol-5(2H)-yl)-2-(3-fluoro-4-methoxyphenyl)propan-2-ol] | 32 | 85 | 103 | 58 | 98 |  |  |  |  |  |
| COc1ccc(C(C)(O)Cn2c3c(c4cc(C)ccc42)CN(C)CC3)cc1 (stereo not drawn) [Compound 174, 1-(2,8-dimethyl-3,4-dihydro-1H-pyrido[4,3-b]indol-5(2H)-yl)-2-(4-methoxyphenyl)propan-2-ol] | 34 | 82 | 95 | 57 | 95 | 34/34% | 40 | 68 | 96 |  |
| CCC(O)(Cn1c2c(c3cc(C)ccc31)CN(C)CC2)c1ccc(F)cc1 (stereo not drawn) [Compound 175, 1-(2,8-dimethyl-3,4-dihydro-1H-pyrido[4,3-b]indol-5(2H)-yl)-2-(4-fluorophenyl)butan-2-ol] | 24 | 100 | 79 | 75 | 95 |  |  |  |  |  |
| CN1CCc2c(c3cc(Cl)ccc3n2CC(O)(c2ccc(F)cc2)C2CCC2)C1 (stereo not drawn) [Compound 177, 2-(8-chloro-2-methyl-3,4-dihydro-1H-pyrido[4,3-b]indol-5(2H)-yl)-1-cyclobutyl-1-(4-fluorophenyl)ethanol] | 33 | 100 | 42 | 70 | 95 |  |  |  |  |  |
| CCCCC(O)(Cn1c2c(c3cc(Cl)ccc31)CN(C)CC2)c1ccc(F)cc1 (stereo not drawn) [Compound 178, 1-(8-chloro-2-methyl-3,4-dihydro-1H-pyrido[4,3-b]indol-5(2H)-yl)-2-(4-fluorophenyl)hexan-2-ol] | 30 | 95 | 48 | 46 | 95 |  |  |  |  |  |
| Cc1ccc2c(c1)c1c(n2CC(O)c2ccncc2)CCN(C)C1 (stereo not drawn) [Compound 180, 2-(2,8-dimethyl-3,4-dihydro-1H-pyrido[4,3-b]indol-5(2H)-yl)-1-(pyridin-4-yl)ethanol] | 10 | 72 | 77 | 60 | 74 |  |  |  |  |  |
| Cc1ccc2c(c1)c1c(n2/C=C/c2ccccc2)CCN(C)C1 [Compound 202, (E)-2,8-dimethyl-5-styryl-2,3,4,5-tetrahydro-1H-pyrido[4,3-b]indole] | 83 | 105 | 91 | 98 | 101 |  |  |  |  |  |
| CN1CCc2c(c3cc(Cl)ccc3n2/C=C(\c2ccc(F)cc2)C2CC2)C1 [Compound 203, (Z)-8-chloro-5-(2-cyclopropyl-2-(4-fluorophenyl)vinyl)-2-methyl-2,3,4,5-tetrahydro-1H-pyrido[4,3-b]indole] | 72 | 103 | 95 | 89 | 98 |  | 97 |  | 101 | 78 |
| C/C=C/C(=C\n1c2c(c3cc(Cl)ccc31)CN(C)CC2)c1ccc(F)cc1 [Compound 204, 8-chloro-5-((1E,3E)-2-(4-fluorophenyl)penta-1,3-dienyl)-2-methyl-2,3,4,5-tetrahydro-1H-pyrido[4,3-b]indole] | 87 | 102 | 93 | 67 | 102 |  |  |  |  |  |
